This passage reports MIC and ED50 results from patent publication US4022895A, “Substituted phenylglycylcephalosporins” (SmithKline Corporation, priority 1975, dated 1977).

In brackets after ≈: the same amount, converted by molar mass. Like-named read-outs stand apart in the source and are kept apart here.

Experiment [1] relates to Kleb. pneumo. SK 4200. Kind of experiment: In vitro antibacterial activity (MIC). As to conditions: Kleb. pneumo. SK 4200, in vitro; read-out: MIC. Format: cell-based. As for the experimental part:
(§1) The compounds of this invention have antibacterial activity against Gram-positive and Gram-negative organisms. Minimum inhibitory concentrations (MIC's) ranged from 0.4 to >200 μg/ml in in vitro testing.

The test system of experiment [2] is Strep. faecalis HH 34358. Put plainly: In vitro antibacterial activity (MIC). Format: cell-based. The settings on record: Enterococcus faecalis, HH34358; Strep. faecalis HH 34358, in vitro. Here is the method:
as §1

Experiment [3] relates to S.aureus SK 23390. Kind of experiment: In vitro antibacterial activity (MIC). Format: cell-based. As to conditions: Staphylococcus aureus, SK23390; S.aureus SK 23390, in vitro; read-out: MIC. As for the experimental part:
as §1

The test system of experiment [4] is Kleb. pneumo. SK 1200. Put plainly: In vitro antibacterial activity (MIC). Format: cell-based. As to conditions: Kleb. pneumo. SK 1200, in vitro; read-out: MIC. As for the experimental part: as §1
Experiment [5] concerns Sal. paratyphl ATCC 12176. Put plainly: In vitro antibacterial activity (MIC). It is filed as cell-based. As for the experimental part: as §1
Experiment [6] has as its system Shig. paradys HH 112. Put plainly: In vitro antibacterial activity (MIC). Format: cell-based. The settings on record: Shig. paradys HH 112, in vitro; read-out: MIC. As for the experimental part:
as §1

The test system of experiment [7] is S.aureus HH 127. Kind of experiment: In vitro antibacterial activity (MIC). The settings on record: Staphylococcus aureus, HH127; S.aureus HH 127, in vitro; read-out: MIC. Format: cell-based. Here is the method: as §1
Experiment [8] concerns E.coli SK 12140. Kind of experiment: In vitro antibacterial activity (MIC). It is filed as cell-based. The settings on record: Escherichia coli, SK12140. Here is the method: as §1
Experiment [9] relates to S.aureus Villaluz. Put plainly: In vitro antibacterial activity (MIC). Format: cell-based. The settings on record: Staphylococcus aureus. As for the experimental part:
as §1

For experiment [10], the system named is Proteus morgani 179. Put plainly: In vitro antibacterial activity (MIC). It is filed as cell-based. As to conditions: Proteus morgani 179, in vitro; read-out: MIC. As for the experimental part: as §1
Experiment [11] relates to Entero. aerog. ATCC 13048. Put plainly: In vitro antibacterial activity (MIC). Format: cell-based. The settings on record: Entero. aerog. ATCC 13048, in vitro; read-out: MIC. As for the experimental part: as §1
Experiment [12] has as its system E. coli HH 33779. Put plainly: In vitro antibacterial activity (MIC). It is filed as cell-based. As to conditions: Escherichia coli, HH33779; E. coli HH 33779, in vitro; read-out: MIC. As for the experimental part:
as §1

For experiment [13], the system named is Klebs.pneumo. 4200. Kind of experiment: In vivo activity (ED50) against Klebs.pneumo. 4200. The settings on record: read-out: ED50.
The subject of experiment [14] is E.coli 12140. Kind of experiment: In vivo activity (ED50) against E.coli 12140.
Setting [15] is: E.coli SK 12140, in vitro, read-out: MIC.
Setting [16] is: Escherichia coli, 12140, po, E.coli 12140, p.o.
Where [17] appears, read: Escherichia coli, 12140, sc, E.coli 12140, s.c.

For `Cn1nnnc1SCC1=C(C(=O)O)N2C(=O)C(NC(=O)[C@H](N)c3ccc(OCC(=O)O)cc3)C2SC1` (stereo partly drawn) [Compound No. 42526, 7-[D-α-Amino-α-(4'-carboxymethoxyphenyl)acetamido]-3-(1-methyl-1,2,3,4-tetrazol-5-ylthiomethyl)-3-cephem-4-carboxylic acid], the MIC in [1] is 3.1 µg/mL (≈ 5.79 µM); in [2], greater than 200 µg/mL; in [3], 25 µg/mL (≈ 46.7 µM); in [4], 3.1 µg/mL (≈ 5.79 µM); in experiment [5] it was 6.3 µg/mL (≈ 11.8 µM); in experiment [6], 6.3 µg/mL (≈ 11.8 µM). Further, the minimal inhibitory concentration (MIC) came out at 25 µg/mL (≈ 46.7 µM) in [7]; 6.3 µg/mL (≈ 11.8 µM) in experiment [8] (setting [15]); 200 µg/mL (≈ 373 µM) in experiment [9]; 100 µg/mL (≈ 187 µM) in experiment [10]; 12.5 µg/mL (≈ 23.3 µM) in [11]; 12.5 µg/mL (≈ 23.3 µM) in [12]. Further, the ED50 in [13] (po, Klebs.pneumo. 4200, p.o.) is 33 mg/kg; in [13] (sc, Klebs.pneumo. 4200, s.c.) it was 5.4 mg/kg; in experiment [14] (setting [16]) it was greater than 50 mg/kg; in [14] (setting [17]), 9.5 mg/kg.

`CC(=O)OCC1=C(C(=O)O)N2C(=O)C(NC(=O)[C@H](N)c3ccc(OCC(=O)O)cc3)C2SC1` (stereo partly drawn) [Compound No. 60326, 7-[D-α-Amino-α-(4'-carboxymethoxyphenyl)acetamido]-cephalosporanic acid]: the MIC amounted to 6.3 µg/mL (≈ 13.1 µM) in [1]; 200 µg/mL (≈ 417 µM) in [2]; 12.5 µg/mL (≈ 26.1 µM) in experiment [3]; 6.3 µg/mL (≈ 13.1 µM) in experiment [4]; 3.1 µg/mL (≈ 6.47 µM) in [5]; 12.5 µg/mL (≈ 26.1 µM) in [7]. Moreover, the MIC in experiment [8] (setting [15]) was 6.3 µg/mL (≈ 13.1 µM); in [9], 200 µg/mL (≈ 417 µM); in [10], greater than 200 µg/mL; in experiment [11] it was 25 µg/mL (≈ 52.1 µM); in [12] it was 25 µg/mL (≈ 52.1 µM). The ED50 in [13] (po, Klebs.pneumo. 4200, p.o.) is 63 mg/kg; in [13] (sc, Klebs.pneumo. 4200, s.c.), 12.5 mg/kg; in [14] (setting [16]), 200 mg/kg; in experiment [14] (setting [17]) it was 11.2 mg/kg.

Regarding `Cc1nnc(SCC2=C(C(=O)O)N3C(=O)C(NC(=O)[C@H](N)c4ccc(SCCC(=O)O)cc4)C3SC2)s1` (stereo partly drawn) [Compound No. 61726, 7-[D-α-Amino-α-(4'-carboxyethylthiophenyl)acetamido]-3-(5-methyl-1,3,4-thiadiazol-2-ylthiomethyl)-3-cephem-4-carboxylic acid], the MIC in experiment [1] amounted to 6.3 µg/mL (≈ 10.8 µM); in [2] it was 50 µg/mL (≈ 86 µM); in [3] it was 6.3 µg/mL (≈ 10.8 µM); in experiment [4], 6.3 µg/mL (≈ 10.8 µM); in experiment [5], 12.5 µg/mL (≈ 21.5 µM); in [7], 6.3 µg/mL (≈ 10.8 µM). Also, the MIC in experiment [8] was found to be 12.5 µg/mL (≈ 21.5 µM); in experiment [9], 50 µg/mL (≈ 86 µM); in experiment [10], 200 µg/mL (≈ 344 µM); in [11], 25 µg/mL (≈ 43 µM); in [12], 25 µg/mL (≈ 43 µM). Also, the ED50 was greater than 50 mg/kg in [13] (po, Klebs.pneumo. 4200, p.o.) and 50 mg/kg in experiment [13] (sc, Klebs.pneumo. 4200, s.c.).

With `Cn1nnnc1SCC1=C(C(=O)O)N2C(=O)C(NC(=O)[C@H](N)c3ccc(NCC(=O)O)cc3)C2SC1` (stereo partly drawn) [Compound No. 76746, 7-[D-α-Amino-α-(4'-carboxymethylaminophenyl)acetamido]-3-(1-methyl-1,2,3,4-tetrazol-5-ylthiomethyl)-3-cephem-4-carboxylic acid], the MIC in experiment [1] was 0.8 µg/mL (≈ 1.5 µM); in experiment [2], 100 µg/mL (≈ 187 µM); in experiment [3] it was 6.3 µg/mL (≈ 11.8 µM); in experiment [4] it was 1.6 µg/mL (≈ 2.99 µM); in experiment [5], 3.1 µg/mL (≈ 5.8 µM); in experiment [6], 3.1 µg/mL (≈ 5.8 µM). Besides, the MIC is 6.3 µg/mL (≈ 11.8 µM) in [7]; 1.6 µg/mL (≈ 2.99 µM) in experiment [8] (setting [15]); 50 µg/mL (≈ 93.5 µM) in experiment [9]; 6.3 µg/mL (≈ 11.8 µM) in [10]; 1.6 µg/mL (≈ 2.99 µM) in experiment [11]; 1.6 µg/mL (≈ 2.99 µM) in experiment [12].

As to `NC(=O)COc1ccc([C@@H](N)C(=O)NC2C(=O)N3C(C(=O)O)=C(CSc4c[nH]nn4)CSC23)cc1` (stereo partly drawn) [Compound No. 91726, 7-[D-α-Amino-α -(4'-carbamylmethoxyphenyl)acetamido]-3-(1,2,3-triazol-4-ylthiomethyl)-3-cephem-4-carboxylic acid], the MIC in experiment [1] worked out at 12.5 µg/mL (≈ 24.1 µM); in [2], 200 µg/mL (≈ 385 µM); in [3] it was 6.3 µg/mL (≈ 12.1 µM); in experiment [4] it was 12.5 µg/mL (≈ 24.1 µM); in [5], 6.3 µg/mL (≈ 12.1 µM); in [6] it was 6.3 µg/mL (≈ 12.1 µM). The MIC in [7] came out at 6.3 µg/mL (≈ 12.1 µM); in [8] (setting [15]), 50 µg/mL (≈ 96.2 µM); in experiment [9], 50 µg/mL (≈ 96.2 µM); in experiment [11], 50 µg/mL (≈ 96.2 µM); in [12], 25 µg/mL (≈ 48.1 µM). Further, the ED50 in [13] (po, Klebs.pneumo. 4200, p.o.) turned out to be 13.6 mg/kg; in [13] (sc, Klebs.pneumo. 4200, s.c.) it was 12.5 mg/kg; in experiment [14] (setting [16]), 25 mg/kg; in [14] (setting [17]) it was 14 mg/kg.

Broadly, the MIC is the lowest concentration found to suppress growth. One may read the ED50 as the dose at which the effect has come halfway, by size or by number of responders.
